US5457105A, “Quinazoline derivatives useful for treatment of neoplastic disease” (Zeneca Limited, priority 1992, dated 1995)

How the values were obtained:
receptor tyrosine kinase = biological target: T1, receptor tyrosine kinase (Homo sapiens, UniProt P00533); assay: Test (a): in vitro inhibition of the enzyme receptor tyrosine kinase (from A-431 cells); format: biochemical; settings: EGF, 25° C., 10 minutes
T1 construct: obtained in partially purified form from A-431 cells; endogenous in cells; host or cells: A-431 cells (human vulval carcinoma); detergent-solubilised membrane fraction
T1 sequence (P00533 25-1210): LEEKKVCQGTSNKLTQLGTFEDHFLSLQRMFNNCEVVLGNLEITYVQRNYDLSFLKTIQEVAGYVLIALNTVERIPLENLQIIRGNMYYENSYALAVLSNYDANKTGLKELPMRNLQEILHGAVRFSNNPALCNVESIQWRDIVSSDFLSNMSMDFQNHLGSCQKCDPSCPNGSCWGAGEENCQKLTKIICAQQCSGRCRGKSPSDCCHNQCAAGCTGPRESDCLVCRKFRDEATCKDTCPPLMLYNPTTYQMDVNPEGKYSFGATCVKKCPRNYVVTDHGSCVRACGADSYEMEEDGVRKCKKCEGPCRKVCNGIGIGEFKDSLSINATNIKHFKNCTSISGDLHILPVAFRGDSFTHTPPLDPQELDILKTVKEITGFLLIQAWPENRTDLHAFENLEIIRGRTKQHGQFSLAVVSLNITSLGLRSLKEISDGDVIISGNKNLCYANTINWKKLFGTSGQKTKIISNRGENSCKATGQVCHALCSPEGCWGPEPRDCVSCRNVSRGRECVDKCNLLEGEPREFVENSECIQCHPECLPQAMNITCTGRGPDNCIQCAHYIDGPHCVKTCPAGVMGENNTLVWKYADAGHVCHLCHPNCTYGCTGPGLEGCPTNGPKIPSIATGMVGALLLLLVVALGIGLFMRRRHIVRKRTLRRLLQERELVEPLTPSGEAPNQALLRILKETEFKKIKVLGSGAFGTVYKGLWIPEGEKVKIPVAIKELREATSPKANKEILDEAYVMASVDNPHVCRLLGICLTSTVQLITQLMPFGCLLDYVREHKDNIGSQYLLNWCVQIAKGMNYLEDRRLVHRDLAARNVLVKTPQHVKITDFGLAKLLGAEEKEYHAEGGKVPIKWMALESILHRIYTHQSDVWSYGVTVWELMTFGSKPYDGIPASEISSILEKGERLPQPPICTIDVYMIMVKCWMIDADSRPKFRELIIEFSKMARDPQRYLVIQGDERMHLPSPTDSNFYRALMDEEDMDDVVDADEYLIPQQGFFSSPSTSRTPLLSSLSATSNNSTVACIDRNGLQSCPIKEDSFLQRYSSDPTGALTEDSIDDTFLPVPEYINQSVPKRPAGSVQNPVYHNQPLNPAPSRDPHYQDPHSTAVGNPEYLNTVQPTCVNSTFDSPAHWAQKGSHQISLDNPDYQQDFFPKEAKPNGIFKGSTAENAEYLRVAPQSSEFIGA
Protocol: (a) An in vitro assay which determines the ability of a test compound to inhibit the enzyme receptor tyrosine kinase. Receptor tyrosine kinase was obtained in partially purified form from A-431 cells (derived from human vulval carcinoma) by procedures related to those described by Carpenter et al., J. Biol. Chem., 1979, 254, 4884, Cohen et al., J. Biol. Chem., 1982, 257, 1523 and by Braun et al., J. Biol. Chem., 1984, 259, 2051.
A-431 cells were grown to confluence using Dulbecco's modified Eagle's medium (DMEM) containing 5% fetal calf serum (FCS). The obtained cells were homogenised in a hypotonic borate/EDTA buffer at pH 10.1. The homogenate was centrifuged at 400 g for 10 minutes at 0°-4° C. The supernatant was centrifuged at 25,000 g for 30 minutes at 0°-4° C. The pelleted material was suspended in 30 mM Hepes buffer at pH 7.4 containing 5% glycerol, 4 mM benzamidine and 1% Triton X-100, stirred for 1 hour at 0°-4° C., and recentrifuged at 100,000 g for 1 hour at 0°-4° C. The supernatant, containing solubilised receptor tyrosine kinase, was stored in liquid nitrogen.
For test purposes 40 μl of the enzyme solution so obtained was added to a mixture of 400 μl of a mixture of 150 mM Hepes buffer at pH 7.4, 500 μM sodium orthovanadate, 0.1% Triton X-100, 10% glycerol, 200 μl water, 80 μl of 25 mM DTT and 80 µl of a mixture of 12.5 mM manganese chloride, 125 mM magnesium chloride and distilled water. There was thus obtained the test enzyme solution.
Each test compound was dissolved in dimethylsulphoxide (DMSO) to give a 50 mM solution which was diluted with 40 mM Hepes buffer containing 0.1% Triton X-100, 10% glycerol and 10% DMSO to give a 500 μM solution. Equal volumes of this solution and a solution of epidermal growth factor (EGF; 20 μg/ml) were mixed.
[γ-^32 P]ATP (3000 Ci/mM, 250 μCi) was diluted to a volume of 2 ml by the addition of a solution of ATP (100 μM) in distilled water. An equal volume of a 4 mg/ml solution of the peptide Arg-Arg-Leu-Ile-Glu-Asp-Ala-Glu-Tyr-Ala-Ala-Arg-Gly in a mixture of 40 mM Hepes buffer at pH 7.4, 0.1% Triton X-100 and 10% glycerol was added.
The test compound/EGF mixture solution (5 μl) was added to the test enzyme solution (10 μl) and the mixture was incubated at 0°-4° C. for 30 minutes. The ATP/peptide mixture (10 μl) was added and the mixture was incubated at 25° C. for 10 minutes. The phosphorylation reaction was terminated by the addition of 5% trichloroacetic acid (40 μl) and bovine serum albumin (BSA; 1 mg/ml, 5 μl). The mixture was allowed to stand at 4° C. for 30 minutes and then centrifuged. […] Radioactivity present in the filter paper was measured using a liquid scintillation counter (Sequence A). […]
The extent of inhibition was then determined at a range of concentrations of test compound to give an IC50 value.

[1] = system: human naso-pharyngeal cancer cell line KB; assay: Test (b): in vitro inhibition of growth of the human naso-pharyngeal cancer cell line KB; format: cell-based; settings: KB cells, EGF (10 ng/ml), 3 days, MTT
Protocol: (b) An in vitro assay which determines the ability of a test compound to inhibit the growth of the human naso-pharyngeal cancer cell line KB.
KB cells were seeded into wells at a density of 1×10^4 -1.5×10^4 cells per well and grown for 24 hours in DMEM supplemented with 5% FCS (charcoal-stripped). Cell growth was determined after incubation for 3 days by the extent of metabolism of MTT tetrazolium dye to furnish a bluish colour. Cell growth was then determined in the presence of EGF (10 ng/ml) or in the presence of EGF (10 ng/ml) and a test compound at a range of concentrations. An IC50 value could then be calculated.

[2] = system: liver hepatocyte growth caused by the administration of the growth factor TGFα; assay: Test (c): in vivo inhibition of TGFα-stimulated liver hepatocyte growth in male rats; parameters: species or system rat; settings: usually orally, TGFα 400 μg/kg subcutaneously, inhibition of BrdU uptake, approximate ED50
Protocol: Cell-growth in the control and test animals is determined as follows: On the morning of the day after the dosing of the test compound (or 0.5% polysorbate in the control group), the animals are dosed with bromodeoxyuridine (BrdU; 100 mg/kg intraperitoneally). The animals are killed four hours later and the livers are excised. […] Further tests were carried out using a range of doses of the test compounds to allow the calculation of an approximate ED50 value for the inhibition of liver hepatocyte proliferation as determined by inhibition of the uptake of BrdU.

[3] = system: human mammary carcinoma which expresses epidermal growth factor (EGF) receptor tyrosine kinase; settings: athymic nude mice; EGF receptor tyrosine kinase expressing; Toi et al. 1990; cited from earlier work
[4] = system: another carcinoma which does not express EGF receptor tyrosine kinase; settings: carcinoma not expressing EGF receptor tyrosine kinase; Toi et al. 1990; cited from earlier work

Row | IC50 (receptor tyrosine kinase) [µM] | IC50 ([1]; Homo sapiens, 72 h) [µM] | SMILES | further results
1 | 0.005 | 0.14 | COc1cc2c(Nc3cccc(C)c3)ncnc2cc1OCCO [7-(2-hydroxyethoxy)-6-methoxy-4-(3'-methylanilino)quinazoline] | 
2 | 0.005 | 0.05 | COc1cc2ncnc(Nc3cccc(C)c3)c2cc1OC [6,7-dimethoxy-4-(3'-methylanilino)quinazoline] | ED50 ([2]; Rattus norvegicus, Hepatocyte, po): < 5 mg/kg
3 |  |  | O=CN/C=C/c1cc(O)ccc1O [erbstatin] | growth of transplanted human mammary carcinoma [3]: specifically attenuates the growth; growth of another carcinoma [4]: without effect
4 |  |  | Cc1cccc(Nc2ncnc3ccc(N)cc23)c1 [6-amino-4-(3'-methylanilino)quinazoline] | IC50 [1]: 1 µM; ED50 in Test (c) [2]: < 5 mg/kg
5 | 0.01 | 0.3 | COc1cc2ncnc(Nc3cccc(C(F)(F)F)c3)c2cc1OC [6,7-dimethoxy-4-(3'-trifluoromethylanilino)quinazoline] | 
6 | 0.01 | 0.65 | CC(=O)Nc1ccc2ncnc(Nc3cccc(C)c3)c2c1 [6-acetamido-4-(3'-methylanilino)quinazoline] | 
